Laboratory results taken from US7223794B2, “Arylheteroalkylamine derivatives and their use as inhibitors of nitric oxide synthase” (AstraZeneca AB, priority 2001, dated 2007).
Counter-ions that a name gives are not always drawn.

Molecular target: T1, Nitric oxide synthase (Mus musculus, UniProt P29477)
T1 construct: endogenous in cells; host or cells: J774A-1 murine macrophage cell line, induced with LPS and IFNg; crude cell lysate
Test: Screen 1: nitric oxide synthase inhibition, 3H-L-arginine to 3H-L-citrulline conversion, lysate of induced J774A-1 cells
Type: biochemical, murine
Details: enzyme from LPS/IFNg-induced J774A-1 macrophage lysate; 1 hour at room temperature; read-out: IC50 (concentration of drug substance which gives 50% enzyme inhibition in the assay)
Description: The activity of compounds of formula (I), or a pharmaceutically acceptable salt thereof, may be screened for nitric oxide synthase inhibiting activity by a procedure based on that of Förstermann et al., Eur. J. Pharm., 1992, 225, 161–165. Nitric oxide synthase converts ^3H-L-arginine into ^3H-L-citrulline which can be separated by cation exchange chromatography and quantified by liquid scintillation counting.
Enzyme is prepared, after induction, from the cultured murine macrophage cell line J774A-1 (obtained from the laboratories of the Imperial Cancer Research Fund). J774A-1 cells are cultured in Dulbeccos Modified Eagles Medium (DMEM) supplemented with 10% foetal bovine serum, 4 mM L-glutamine and antibiotics (100 units/nl penicillin G, […] streptomycin & […] ainphotericin B). Cells are routinely grown in […] flasks containing 35 ml medium kept at 37° C. and in a humidified atmosphere containing 5% CO2. […]
Labelled L-citrulline is separated from labelled L-arginine using Dowex AG-50W. […] After allowing the samples to dry the L-citrulline is quantified by scintillation counting.
In a typical experiment basal activity is 300 dpm per 75 μl sample which is increased to 1900 dpm in the reagent controls. […] Compounds are tested at a range of concentrations and from the inhibitions is obtained IC50 values are calculated. […]

SMILES | IC50
N=C(N)NN [ainlinoguanidine] | 10 µM

Test system: human form of induced nitric oxide synthase
Test: Screen 3: nitrite accumulation (Griess) in cytokine-induced DLD-1 cells
Type: cell-based
Details: DLD-1 cells induced with gamma-IFN, TNF-alpha, IL-6, IL-1-beta, 5 hours incubation with compound, read-out: IC50 (inhibition of nitrite accumulation)
Description: The human colorectal carcinoma cell line, DLD-1 (obtained from the European Collection of Animal Cell Culture—cell line number 90102540) was routinely grown in RPMI 1640 supplemented with 10%(v/v) foetal bovine serum, and 2 mM L-glutanmine, at 37° C. in 5% CO2.
Nitric oxide synthase was induced in cells by addition of medium containing human recombinant gamma-IFN (1000 units/ml), TNF-alpha (200 U/ml), IL-6 (200 U/ml) and IL-1-beta (250 U/ml). After incubation for 18 hours at 37° C., the medium was removed and the cells washed with warm phosphate buffered saline. Cells were incubated for a further 5 hours at 37° C./5% CO2 in RPMI 1640 containing 100 μM L-arginine and 100 μM verapamil-HCl in the presence and absence of test compounds.
Nitrite accumulation was determined by mixing an equal volume of culture media with Griess reagent (10 mg/ml sulphanilamide, 1 mg N-(1-naphthyl)ethylenediamine in 1 ml 2.5% (v/v) phosphoric acid). Inhibition in the presence of compounds was calculated relative to the nitrite levels produced by untreated cells. IC50 values were estimated from a semi-log plot of % inhibition versus concentration of compound.

IC50 | SMILES
< 100 µM | CC(=N)NCC(Oc1cc(Cl)c(F)cc1C#N)c1ccccc1.Cl (stereo not drawn) [Example 5, N-[2-(5-Chloro-2-cyano-4-fluorophenoxy)-2-phenylethyl]-ethanimidamide hydrochloride]
< 100 µM | CNC[C@@H](Sc1cc(Cl)ccc1C#N)c1ccccc1 [Example 9, 4-Chloro-2-[[(1S)-2-(methylamino)-1-phenylethyl]thio]benzonitrile hydrochloride]
< 100 µM | N#Cc1ccc(Cl)cc1SC(CN)c1cccnc1 (stereo not drawn) [Example 11, 2-[[2-Amino-1-(3-pyridinyl)ethyl]thio]-4-chlorobenzonitrile]
< 100 µM | N#Cc1ccc(Cl)cc1S[C@H](CN)c1ccccc1 [Example 4, 2-[[(1S)-2-Amino-1-phenylethyl]thio]-4-chlorobenzonitrile hydrochloride]
< 100 µM | N#Cc1ccc(C(F)(F)F)nc1S[C@H](CN)c1ccccc1 [Example 7, 2-[[(1S)-2-Amino-1-phenylethyl]thio]-6-(trifluoromethyl)-3-piridinecarbonitrile]
< 100 µM | Cc1ccc(C#N)c(S[C@H](CN)c2ccccc2)n1 [Example 2, 2-[[(1S)-2-Amino-1-phenylethyl]thio]-6-methyl-3-pyridinecarbonitrile hydrochloride]
< 100 µM | COc1ccc(C#N)c(S[C@H](CN)c2ccccc2)c1 [Example 8, 2-[[(1S)-2-Amino-1-phenylethyl]thio]-4-methoxybenzonitrile hydrochloride]
< 100 µM | NCC(Sc1cc(Cl)ccc1Cl)c1ccccc1 (stereo not drawn) [Example 3, 2-[(2,5-Dichlorophenyl)thio]-2-phenylethylamine hydrochloride]
< 100 µM | N#Cc1cc(F)c(Cl)cc1O[C@H](CN)c1ccccc1 [Example 1, 2-[[(1S)-2-Amino-1-phenylethyl]oxy]-4-chloro-5-fluorobenzonitrile (E)-butenedioate]
< 100 µM | N#Cc1cc(F)c(Cl)cc1O[C@H](CN)c1ccon1 [Example 10, 2-[[(1R)-2-Amino-1-(3-isoxazolyl)ethyl]oxy]-4-chloro-5-fluorobenzonitrile ethanedioate]

Test system: not given
Test: not given
Details: not given

melting point | SMILES
133 to 135 °C | CC(=N)NCC(Oc1cc(Cl)c(F)cc1C#N)c1ccccc1.Cl (stereo not drawn) [Example 5, N-[2-(5-Chloro-2-cyano-4-fluorophenoxy)-2-phenylethyl]-ethanimidamide hydrochloride]
